Results from US12559863B2, “Macrocyclic modulators of disease associated protein misfolding and aggregation” (RESQ BIOTECH, priority 2017, dated 2026).
Where a SMILES comes first, the peptide text is derived from it.

What was measured:
Aβ42 = target: T1, Aβ42 (Homo sapiens, UniProt P05067); test: Transmission electron microscopy of Aβ42; format: biochemical; conditions: 50 μM Aβ42 with 100 μM peptide, 30-d aged
T1 construct: one of the secondary products yields a 42-amino-acid-long peptide (Aβ42); purchased Eurogentec, Belgium; host or cells: chemical synthesis
Experimental: For TEM analysis, the 30-d aged 50 μM CD solutions of Aβ42 (with 100 μM of the selected peptides or without) was mixed well by pipetting. 2 μL of this solution were placed in a carbon-coated film on 200-mesh copper grids (Agar Scientific, UK) for 5 min. After adsorption, grids were washed in deionized water and negatively stained by applying a 2-μl drop of freshly prepared 1% (w/v) uranyl acetate (Sigma-Aldrich, USA) in Milli-Q water for 5 min. Excess fluid was blotted off, and grids were washed in deionized water and dried in air. Images were recorded using a FEI CM20 electron microscope (FEI, USA) with a Gatan GIF200 imaging filter (Gatan, USA), equipped with a Peltier-cooled slow-scan CCD camera.

Aβ42-GFP = target: T2, Aβ42-GFP (Homo sapiens, UniProt P05067); test: High-throughput sequencing of pSICLOPPS vectors isolated after bacterial sorting for enhanced Aβ42-GFP fluorescence
T2 construct: a chimeric fusion of the human Aβ(1-42) peptide (Aβ42) with GFP; expressed in transfected cells; host or cells: E. coli BL21(DE3)
In short: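 Peptide inserts recovered from repeatedly sorted high-GFP clones were sequenced on Ion Torrent, excluding stop-codon-containing reads. Sorting used BL21(DE3) cells carrying pETAβ42-GFP plus the tetra-, penta- and hexapeptide pSICLOPPS library. Peptide production was induced with 0.002% L-arabinose and the reporter with 0.1 mM IPTG at OD600 ~0.5, at 37° C.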

[1] = test system: Aβ-exposed neuronal cells; test: Phase-contrast microscopy of Aβ-exposed neuronal cells; format: cell-based, mouse; conditions: pre-aggregated Aβ
Experimental: Solutions of synthetic Aβ40 or Aβ42 (10 μM) in PBS, preincubated at 37° C. (3 d for Aβ40 solutions and 1 d for Aβ42 solutions) in the presence or absence of synthetic cyclic peptides (1:1 and 2:1 ratio of peptides:Aβ), were diluted with fresh medium and transferred into wells at a 1 μM final Aβ concentration. Cell viability was determined using the MTT assay. MTT (3-[4,5-dimethylthiazol-2-yl]-2,5-diphenyl tetrazolium bromide) was purchased from Applichem (Germany). After 24 h of exposure to Aβ solutions, 100 μL of a 0.5 mg/mL stock solution of MTT in Neurobasal-A was added to each well of primary hippocampal neurons followed by a 3 h incubation at 37° C., while 100 μL of a 1 mg/mL stock solution of MTT in DMEM complete medium was added to each well of U87MG cells followed by a 4 h incubation at 37° C. The medium was then removed and the cells were diluted in DMSO. The relative formazan concentration was measured by determination of the absorbance at 540 nm using a plate reader (Tecan, Austria). Results were expressed as the percentage of MTT reduction, assuming that the absorbance of control (untreated) cells was 100%, and represent the mean of three independent experiments with six replicate wells for each condition. Induced cell death was also qualitatively examined by phase-contrast microscopy (Carl Zeiss, Axiovert 25 CFL, Germany) using the above solutions. […]

T2 sequence (P05067 672-713 limits assumed): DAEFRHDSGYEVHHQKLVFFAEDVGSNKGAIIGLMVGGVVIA
T1 sequence (P05067 672-713 limits assumed): as above

Row | SMILES | Aβ42 fibrils by TEM (Aβ42) | Reads/Total SASPT-like reads (%) (Aβ42-GFP; Table 2) | Reads/Total pentapeptide reads (%) (Aβ42-GFP; Table 2) | Reads/Total peptide reads (%) (Aβ42-GFP; Table 2) | Number of reads (Aβ42-GFP; Table 2, after second round of sorting) | morphology of Aβ-exposed neuronal cells [1] | Reads/Total TXXXR reads (%) (Aβ42-GFP; after the second round of bacterial sorting, relative to total TXXXR reads) | Reads/Total pentapeptide reads (%) (Aβ42-GFP; after the second round of bacterial sorting, relative to total pentapeptide reads) | Reads/Total peptide reads (%) (Aβ42-GFP; after the second round of bacterial sorting, relative to total peptide reads) | Number of reads (Aβ42-GFP; high-throughput sequencing of isolated pSICLOPPS-NuX1X2X3-X5 vectors after the second round of bacterial sorting for enhanced Aβ42-GFP fluorescence, selected cyclo-TXXXR pentapeptides)
1 | C[C@@H]1NC(=O)[C@H](CO)NC(=O)[C@H]([C@@H](C)O)NC(=O)[C@@H]2CCCN2C(=O)[C@H](CO)NC1=O [AβC5-34, cyclo-SASPT] (cyclo(ASPTS)) | notably fewer, shorter and ill-developed | 97.349 | 0.632 | 0.567 | 25673 | marked recovery of the Aβ-induced alterations |  |  |  | 
2 | C[C@@H]1NC(=O)[C@H]([C@@H](C)O)NC(=O)[C@H](CCCNC(=N)N)NC(=O)[C@H](CC(=O)O)NC(=O)[C@H](Cc2ccccc2)NC1=O [AβC5-116, cyclo-TAFDR] (cyclo(AFDRT)) | notably fewer, shorter and ill-developed |  |  |  |  | marked recovery of the Aβ-induced alterations | 0.223 | 0.105 | 0.094 | 4,243
